The values below come from US12679801B2, “Amino lipid and preparation method and application thereof” (Shenzhen MagicRNA Biotechnology Co., Ltd., priority 2022, dated 2026).

For test [1], the system named is BMDC primary cells. As to the kind of experiment: Luc mRNA LNP transfection of the four amino lipids on BMDC primary cells (Embodiment 28, Table 15). In kind it is cell-based, C57BL/6 mice. To be noted: Luc mRNA LNP 10 μL per well, 16 h, ONE-Glo Luciferase. How it is done: Preparation method: the same as that described above.
(§1) Animal preparation: 6-week-old female C57BL/6 mice with the body weight about 20 g were selected. The feeding environment was an SPF stage feeding room. Animal tests were strictly performed according to the guide of the national health institute and the animal ethics requirements.
(§2) Cell acquisition: C57BL/6 mice were killed through cervical dislocation, and were soaked for 5 min in 75% ethyl alcohol. Dissection was performed to obtain thigh and calf tibiae of the mice. Attached muscles were removed to expose sclerotin. Then, bone marrow in tibiae was blown out by using a 1 mL injector sucked with PBS. After the bone marrow was blown away, impurities were filtered away by a 50 μm filter screen. A red blood cell lysis buffer (3-4 mL) was added into an obtained filtrate. Then, after placement for 5 min, 800 g centrifugation was performed for 5 min to remove the supernatant. The obtained cells were placed into a 1640 culture medium (containing 10% fetal calf serum, 20 ng/mL GMCSF and 10 ng/ml IL4) to be resuspended, and were inoculated into a 6-well plate at an inoculation density of 100000 cells/ml culture medium. The materials were placed into a 37° C. cell incubator containing 5% CO2. Half liquid change was performed once every 2 days. Suspended cells and loose wall attached cells were collected on the seventh day, and were per well, and the volume of a culture medium was 100 μL.
(§3) Cell transfection: lipid nanoparticles coated with luciferase mRNA were added into a 96-well all-white ELISA plate laid with primary cells. The adding volume of the mRNA lipid nanoparticles in each well was controlled to be 10 μL. Then, the materials were put into a 37° C. incubator containing 5% CO2 for 16 h.
Transfection efficiency detection: 20 μL of a substrate ONE-Glo™ Luciferase was added into each well of a 96-well all-white ELISA plate. After 1 min, detection was performed by a multifunctional or multimode microplate reader. DLin-MC3 was used as a control.

Another test has as its system HeLa cells. Briefly: In-vitro evaluation of E7C71A9, Compound A, B, C as Luc-mRNA vector (Embodiment 27, Table 14). In kind it is cell-based. To be noted: Luc-mRNA 100 ng/well, 16-20 h, relative to Lipofectamine3000, lipid:DSPC:cholesterol:PEG2000-DMG 43:10.5:45:1.5. The text has this:
• Cell line: HeLa cell line • Culture medium: 1640 […] supplemented with 10% fetal calf serum • Screening form: 96-well plate cell transfection • Detection: fluorescence intensity detection by a multifunctional microplate reader. According to manufacturer's instructions, Lipofectamine3000 was used as a positive control group. • Method: a pipette was used for sample addition. The shown content is the content of a single well of a 96-well plate.
1. Synthesis of E7C71A9, Compound A, Compound B, and Compound C was performed as described above. And these four ionizable amino lipid compounds were respectively mixed with DSPC, cholesterol and PEG2000-DMG into absolute ethyl alcohol. according to a mole ratio of 43:10.5:45:1.5, The Luc-mRNA was dissolved into a sodium acetate buffer solution ([…], pH=5.0). The mixed lipid solution was taken out by a pipette, and was added into the Luc-mRNA solution to be sufficiently mixed. A proportion ratio of the ethyl alcohol solution to the sodium acetate buffer solution ([…], pH=5.0) was controlled to be 1:3, and a nanoparticle solution was prepared. A mass ratio of the amino lipid compound to luciferase mRNA (Luc mRNA) was about 10:1, and the mRNA consumption in each well was 100 ng.
2. After the lipid nanoparticle solution was incubated for 30 min at room temperature, 100 μL of fresh resuspended HeLa cells (1×10^4 cells) were added into each well of a 96-well all-white ELISA plate. Then, the lipid nanoparticle solution was added into the 96-well plate (10 μL for each well) by a pipette. The solution was placed into a 37° C. incubator containing 5% CO2 to be incubated.
3. After 16 h to 20 h of cell initial transfection, a substrate ONE-Glo™ Luciferase was added into cells at 100 μL/well, and after 2 min, detection was performed by a multifunctional or multimode microplate reader.
4. The relative transfection efficiency was calculated as follows: Relative transfection efficiency (%)=fluorescence intensity of LNP/fluorescence intensity of Lipofectamine3000×100%.

In another test the test system is endosome/lysosome. To be noted: background statement; cited from earlier work.
For test [2], the system named is B16-OVA melanoma cells. As to the kind of experiment: OVA mRNA LNP vaccine, in-vivo immunity and tumor treatment (Embodiment 15). On the set-up: species or system C57BL/6 mice. To be noted: B16-OVA tumor-bearing mice, two intramuscular injections of LNP with 1 μg OVA-mRNA, 7 days apart. As for the experimental part:
Preparation method: the amino lipid compounds of the disclosure, DSPC, cholesterol and PEG2000-DMG were mixed according to a mole ratio of 50:10:38.5:1.5 and were dissolved in absolute ethyl alcohol. OVA mRNA was dissolved in a sodium acetate buffer solution (50 nM, pH=4.0). The obtained ethyl alcohol solution and the acetate buffer solution […] were mixed in a micro-fluidic chip according to a volume ratio of 1:3 by using a micro-fluidic preparation system to obtain lipid nanoparticles. Then, dialysis was performed for 6 h under the conditions of 1×PBS and temperature was controlled at 4° C. by using a dialysis cassettes or box (MWCO 20,000). Filtration was performed by a 0.22 μm microporous filtering membrane prior to use. The mass ratio of the amino lipid compound to OVA mRNA was about 10:1.
(§4) Animal preparation: 5-6-week-old female C57BL/6 mice with the body weight about 18 to 20 g were selected. The feeding environment was an SPF stage feeding room. Animal tests were strictly performed according to the guide of the national health institute and the animal ethics requirements.
(§5) In-vivo delivery: B16-OVA melanoma cells (1.5×10^5) were injected to the outer thighs of the mice through subcutaneous injection. When the tumor grew to 50 mm^3 (on the about 6th or 7th day after tumor inoculation), the mice began to inoculated vaccines, the animals were subjected to twice immunization through intramuscular injection of an LNP preparation containing 1 μg OVA-mRNA. An interval between first and second injections was 7 days. The tumor growth was measured for 3 times every week by a digital display calliper, and a calculation formula was […]. When the tumor size reached 1500 mm^3, the mice received euthanasia. Additionally, 60% of mice (E7C71A9 group) and 40% of mice (E6C71A12 group) respectively reached the complete relieving effect.

Test [3] relates to BMDC primary cells. Briefly: Luc mRNA LNP transfection on BMDC primary cells (Embodiment 13, Table 3). To be noted: 16 h, ONE-Glo Luciferase. In kind it is cell-based, C57BL/6 mice. How it is done: Preparation method: the same as that described in Embodiment 7.
as §1, §2, §3
Transfection efficiency detection: 20 μL of a substrate ONE-Glo™ Luciferase was added into each well of a 96-well all-white ELISA plate. After 1 min, detection was performed by a multifunctional or multimode microplate reader.

Test [4] has as its system B16-OVA melanoma cells. Briefly: OVA mRNA LNP vaccine, in-vivo immunity and tumor treatment (Embodiment 23). Details: species or system C57BL/6 mice. To be noted: B16-OVA tumor-bearing mice, two intramuscular injections of LNP with 5 μg OVA-mRNA, 7 days apart. How it is done:
Preparation method: the amino lipid compounds of the disclosure, DSPC, cholesterol and PEG2000-DMG were mixed according to a mole ratio of 50:10:38.5:1.5 in absolute ethyl alcohol. OVA mRNA was dissolved in a sodium acetate buffer solution (50 nM, pH=4.0). The ratio of the ethyl alcohol solution to the acetate buffer solution (50 nM, pH=4.0) was controlled to be 1:3 by using two micro-injection pumps to prepare a coarse solution of the lipid nanoparticles in a micro-fluidic chip. Then, dialysis was performed for 6 h under the conditions of 1×PBS and temperature control at 4° C. by using a dialysis cassettes or box (MWCO 20,000). Before use, filtration was performed by a 0.22 μm microporous filtering membrane. A mass ratio of the amino lipid compound to OVA mRNA was about 8:1.
as §4
as §5, with “containing 5” for “containing 1”, “euthanasia.” for “euthanasia. Additionally, 60% of mice (E7C71A9 group) and 40% of mice (E6C71A12 group) respectively reached the complete relieving effect.”

Test [5] concerns BMDC primary cells. As to the kind of experiment: Luc mRNA LNP transfection on BMDC primary cells (Embodiment 21, Table 9). In kind it is cell-based, C57BL/6 mice. To be noted: 16 h, ONE-Glo Luciferase. As for the experimental part: Preparation method: the same as that in Embodiment 17.
Animal preparation: 6-week-old female C57BL/6 mice with the body weight about 20 g were selected. A feeding environment was an SPF stage feeding room. Animal tests were strictly performed according to the guide of the national health institute and the animal ethics requirements.
as §2, with “to remove a supernatant. The” for “to remove the supernatant. The”, “and 10 ng/mL IL4) to” for “and 10 ng/ml IL4) to”, “and were inoculated to a 96-well all-white ELISA plate at the inoculation density of 20000 cells per well,” for “and were per well,”
Cell transfection: lipid nanoparticles coated with luciferase mRNA were added into a 96-well white ELISA plate laid with primary cells. The adding volume of the mRNA lipid nanoparticles in each well was controlled to be 10 μL. Then, the materials were put into a 37° C. incubator containing 5% CO2 for 16 h.
Transfection efficiency detection: 20 μL of a substrate ONE-Glo™ Luciferase was added into each well of a 96-well all-white ELISA plate, and after 1 min, detection was performed by a multifunctional or multimode microplate reader.

Regarding `CCCCCCCCCCC(CCOC(=O)C(CCCCCC)CCCCCCCC)OC(=O)CCCN(C)C` (stereo not shown) [Compound A, 3-((4-(dimethylamino)butanoyl)oxy)tridecyl 2-hexyldecanoate], the “Fluorescence intensity (transfection expression intensity)” value (shortened to “Fluorescence intensity”) in the test on BMDC primary cells [1] is listed as 4.9E+04. In addition, the “Relative Transfection Efficiency” value in the test on HeLa cells turned out to be 0.62.

Turning to `CCCCCCCCCCC(CCCOC(=O)C(CCCCCC)CCCCCCCC)OC(=O)CCCN(C)C` (stereo not shown) [Compound B], the “Fluorescence intensity” value in the test with BMDC primary cells [1] is 2.5E+04. In addition, the “Relative Transfection Efficiency” value in the test on HeLa cells stood at 0.45.

With `CCCCCCCCCCC(CCCCOC(=O)C(CCCCCC)CCCCCCCC)OC(=O)CCCN(C)C` (stereo not shown) [Compound C], in the test on BMDC primary cells [1], the “Fluorescence intensity” value is listed as 9.3E+03. Also, the “Relative Transfection Efficiency” value in the test with HeLa cells came to 0.39.

Turning to `CCCCC/C=C\C/C=C\CCCCCCCCC(CCCCCCCC/C=C\C/C=C\CCCCC)OC(=O)CCCN(C)C` [DLin-MC3, DLin-MC3-DMA], in the test with endosome/lysosome, the “RNA that escapes from the endosome/lysosome” value is reported as 1%-4%.

Regarding `CCCCCCCCCC(COC(=O)C(CCCCCC)CCCCCCCC)OC(=O)CCCCCN(C)C` (stereo not shown) [E6C71A12], in the test with B16-OVA melanoma cells [2], the “mice that reached the complete relieving effect” value came out at 40%; the “result (survival curve, FIG. 4) compared with MC3 group” value is “obviously superior to that of MC3 group”; the “tumor growth speed compared with MC3 group (FIG. 3)” value is on record as “obviously lower than that of MC3 group”. Further, the Luciferase luminescence intensity in the test with BMDC primary cells [3] is 7.3E+ 04.

In the case of `CCCCCCCCCCC(COC(=O)C(CCCCCC)CCCCCCCC)OC(=O)CCCN(C)C` (stereo not shown) [E7C71A9, 2-((4-(Dimethylamino)Butanoyl)Oxy) Dodecyl 2-Hexyldecanoate], in the test on B16-OVA melanoma cells [2], the “mice that reached the complete relieving effect” value is recorded as 60%; the “result (survival curve, FIG. 4) compared with MC3 group” value is on record as “obviously superior to that of MC3 group”; the “tumor growth speed compared with MC3 group (FIG. 3)” value is reported as “obviously lower than that of MC3 group”. Besides, the “Fluorescence intensity” value in the test on BMDC primary cells [1] was found to be 8.8E+04. Further, the “Relative Transfection Efficiency” value in the test on HeLa cells stood at 2.0. For the same compound, the Luciferase luminescence intensity in the test on BMDC primary cells [3] was 8.8E+ 04.

With `CCCCCCCCCCC(COC(=O)C(CCCCCCCC)CCCCCCCC)OC(=O)CCCCN(C)C` (stereo not shown) [E7C115A11], in the test on B16-OVA melanoma cells [4], the “mice tumors completely disappeared” value was determined as 90%, the survival rate was 100%, the “survival rate compared with MC3 group (FIG. 6)” value is “obviously superior to that of MC3 group” and the “tumor growth speed compared with MC3 group (FIG. 5)” value is on record as “obviously lower than that of MC3 group”. Further, the Luciferase luminescence intensity with BMDC primary cells [5] was found to be 2.4E+05.
